From patent US7141603B2, “Antitumor agents” (The Regents of The University California, priority 1999, dated 2006)

Key:
[1] = test system: MV522 (human lung carcinoma cell line); experiment: Test A in vitro cytotoxicity, 2 hour exposure, [3H]-thymidine incorporation; assay type: cell-based; settings: read-out: 2 hour IC50 MV522, mean ± 1 standard deviation
Procedure: (§1) To assess cytotoxic effects, various concentrations of compounds of the invention were added to cultures of MV522 (human lung carcinoma cell line), HL60 (myeloid leukemia cells), and 8392 (B-cell leukemia/lymphoma) cells for 48 hours, then cell growth/viability was determined by trypan blue exclusion. As an alternative to 48 hour continuous exposure studies, cells were plated in liquid culture in 96 well plates, exposed to various concentrations of compounds of the invention for 2 hours, pulsed with [^3H]-thymidine for one to two hours and harvested onto filter papers. The filter papers were added to vials containing scintillation fluid and residual radioactivity determined in a beta (scintillation) counter.
(§2) Values are reported as mean±1 standard deviation; units are nanomoles per liter; and NT signifies not tested.

[2] = test system: MV522 lung carcinoma xenograft; experiment: Test B in vivo MV522 lung carcinoma xenograft; settings: for relative tumor weight Wt/Wi Day 17 / relative tumor weight Wt/Wi Day 24 / relative tumor weight Wt/Wi Day 31: i.p. QD×5 on days 10-14, day ten = 1.0, dose: 1 14 mg/kg, 2 35 mg/kg, 13 32 mg/kg, 14 28 mg/kg; for MTD reached in Test B: daily IP for 5 consecutive days, MV522 xenograft mice
Description: Several representative compounds of the invention were chosen for in vivo studies. […] Drug therapy was started 10 days after inoculation on a daily basis via IP route for 5 consecutive days. The animals were monitored for 3 weeks after start of therapy.
BALB/c nu/nu 4-week old female mice weighing 18–22 g were obtained from Simonsen, Inc. (Gilroy, Calif.) and maintained in the athymic mouse colony of the University of California (San Diego, Calif.) under pathogen free conditions using HEPA filter hoods. Animals were provided with sterilized food and water ad libitum in groups of 5 in plastic cages vented with polyester fiber filter covers. Clean, sterilized gowns, glove, face masks, and shoe and hood covers were worn by all personnel handling the animals. All studies were conducted in accordance with guidelines of the NIH “Guide for Care and Use of Animals” and approved by the University Institutional Animal Care and Use Committee (Protocol 3-006-2)
The MV522 lung carcinoma line used for xenograft studies was derived as described by Kelner et al. (Anticancer Res., 15: 867–872; 873–878 (1995)) and maintained in antibiotic-free RPMI 1640 (Mediatech, Herndon, Va.) supplemented with 10% fetal bovine serum and 2 mM glutamine in 37° C. humidified carbon dioxide incubator.
Each animal was earmarked and followed individually throughout the experiments. Mice received s.c. injections of the parental cell line MV522 using 10 million cells/inoculation over the shoulder. Ten days after s.c. implantation of the MV522 cells, when s.c. tumors were approximately 3×3 mm in size, animals received the desired drug and dosage. The effect of the compound on life span was calculated from median survival.
Although MV522 cells kill mice by metastases, primary s.c. tumor growth over the shoulder was monitored starting on the first day of treatment and at weekly intervals thereafter. Tumor size was measured in two perpendicular diameters. Tumor weights were estimated according to the formula w=(width)^2×length/2). Relative weights (RW) were calculated to standardized variability in tumor size among test groups at initiation of treatment using the formula RW=Wt/wi, where Wi is the tumor weight for a given animal at beginning of drug treatment and Wt is tumor weight at a subsequent time. Animals were necropsied, and organs were examined for evidence of metastases.
Comparison of survival curves between groups of animals was by the method of Kaplan and Meier. For comparison of relative tumor weights between multiple groups of animals, ordinary ANOVA followed by Tukey-Kramer multiple Comparison post ANOVA analysis was performed (Kelner et al. (Anticancer Res., 15: 867–872; 873–878 (1995)). Probability values (p) less than 0.05 were considered statistically significant.
Data was collected using eight animals in the control studies and four animals in each compound study. Values represent relative tumor weight or Wt/Wi (day ten by definition is 1.0). Drug was administered i.p. on days 10, 11, 12, 13, and 14 (QD×5 days).

[3] = test system: HL60 (myeloid leukemia cells); experiment: Test A in vitro cytotoxicity, 2 hour exposure, [3H]-thymidine incorporation; assay type: cell-based; settings: read-out: 2 hour IC50 HL60, mean ± 1 standard deviation
Procedure: as §1, §2

[4] = test system: Dunning leukemia; settings: rats with Dunning leukemia; cited from earlier work
[5] = test system: solid tumor systems; settings: cited from earlier work
[6] = test system: 8392 (B-cell leukemia/lymphoma) cells; experiment: Test A in vitro cytotoxicity, 2 hour exposure, [3H]-thymidine incorporation; assay type: cell-based; settings: read-out: 2 hour IC50 8392, mean ± 1 standard deviation
Procedure: as §1, §2

[7] = Tolerated dose / toxicity on administration; settings: chronically administered at 35 mg/kg
Description: As one skilled in the art would recognize, the amount can be varied depending on the method of administration.

SMILES	IC50 [1]	relative tumor weight Wt/Wi Day 17 [2]	relative tumor weight Wt/Wi Day 24 [2]	relative tumor weight Wt/Wi Day 31 [2]	IC50 [3]	other results
CC(=O)N[C@@H](CSCC1=C(C)C=C2C(=O)C(C)(O)C3(CC3)C(C)=C21)C(=O)O (some centres unmarked) [Compound 13]	10 µM	2.3 ± 0.5	4.1 ± 0.8	4.7 ± 1.5		
CC(=O)N[C@@H](CSCC1=C(C)C=C2C(=O)C(C)(O)C3(CC3)C(C)=C21)C(=O)N[C@H](C)c1ccccc1 (some centres unmarked) [Compound 14]	3.05 µM	3.2 ± 0.6	4.1 ± 0.8	6.0 ± 1.8		
COCC1=C(COC)C2=C(C)C3(CC3)C(C)(O)C(=O)C2=C1 (centres unmarked) [Compound 9]	> 50 µM				49.8 µM	
CC1=C2C(=CC(C)(C)[C@@H]2O)C(=O)[C@](C)(O)C12CC2 [Illudin M]						life span [4]: significantly increased; therapeutic index [5]: low
CC(=O)OCC1=CC2=C(C)C3(CC3)C(C)(O)C(=O)C2=C1 (centres unmarked) [Compound 3]	19.6 µM				15.6 µM	IC50 [6]: 62 µM
COCC1=CC2=C(C)C3(CC3)C(C)(O)C(=O)C2=C1 (centres unmarked) [Compound 7]					6 µM	
COCC1=C(CO)C=C2C(=O)C(C)(O)C3(CC3)C(C)=C21 (centres unmarked) [Compound 8]	> 80 µM				> 80 µM	
CC(=O)OCC1=C(COC(C)=O)C2=C(C)C3(CC3)C(C)(O)C(=O)C2=C1 (centres unmarked) [Compound 5]					38.4 µM	
CC1=C2C(=CC(CO)=C2CO)C(=O)C(C)(O)C12CC2 (centres unmarked) [Compound 2]	11.3 µM	2.1 ± 0.2	3.3 ± 0.3	4.0 ± 0.9		MTD reached in Test B [2]: not; toxicity on chronic administration [7]: without toxicity
CC(=O)OCC1=C(CO)C=C2C(=O)C(C)(O)C3(CC3)C(C)=C21 (centres unmarked) [Compound 4]	20.4 µM				> 40 µM	
CC1=C2C=C(CO)C=C2C(=O)C(C)(O)C12CC2 (centres unmarked) [Compound 1]		1.4 ± 0.7	7.0 ± 1.3	11.8 ± 3.0		IC50 [6]: 37 µM; MTD reached in Test B [2]: not
